From PMC3784060 (Cancer Chemotherapy and Pharmacology, 2013)

How the values were obtained:
[1] = phase II study in acute leukemia: toxicity (NCI CTCAE version 3.0); assay type: in vivo, human
Protocol: The study was approved by the Institutional Review Board (IRB) at each participating institution and was conducted in accordance with the Declaration of Helsinki and in compliance with International Conference on Harmonization Good Clinical Practice Guidelines. Written informed consent was obtained from all patients before study enrollment.
Each cycle lasted 21 days. Patient could continue treatment on the study in the absence of disease progression or unacceptable toxicity. The next cycle of therapy could start if non-hematologic toxicity from previous cycle recovered to ≤grade 1, and dose delay of up to 3 weeks was allowed for recovery. Permanent dose reduction was required for any ≥grade 3 clinically significant non-hematologic adverse event (70 mg/m^2 → 50 mg/m^2; 50 mg/m^2 → 40 mg/m^2; 40 mg/m^2 → 30 mg/m^2; 30 mg/m^2 → discontinue). To allow for continued treatment of subjects whose cytopenias were due to leukemia and not due to drug toxicity, subsequent cycles of treatment were allowed if absolute neutrophil count (ANC) ≥0.5 × 10^9/L or for ANC <0.5 × 10^9/L but no more than 20 % below the baseline pretreatment levels and platelet count ≥20 × 10^9/L or platelets <20 × 10^9/L but no more than 20 % below the baseline pretreatment levels. Anti-emetic prophylaxis including serotonin-receptor antagonist, metoclopramide, or prochloperazine with or without dexamethasone was allowed. […] Dexamethasone 20 mg IV was given early if symptoms of cytokine release syndrome were observed.
Response was assessed by bone marrow (BM) examination on day 21 of cycles 1 and 2, and every 6 weeks thereafter until complete remission or progressive disease (PD). Response was determined according to the revised recommendations of the International Working Group (IWG) for AML [33]. Toxicities were graded according to the National Cancer Institute Common Terminology Criteria for Adverse Events (NCI CTCAE), version 3.0 (http://ctep.cancer.gov/protocolDevelopment/electronic_applications/docs/ctcaev3.pdf). Hematologic and chemistry profiles were monitored on day 1 and 2 of each cycle or until resolution of acute toxicities and subsequently at least once a week or more frequently depending on the individual patient’s needs.

[2] = plasma pharmacokinetics (HPLC-MS/MS, population PK model); conditions: human, intravenous
Protocol: Blood samples for PK evaluations (3 mL each) were collected into prechilled K2 EDTA tubes at 0, 0.25–0.5, 1–2, and 4 h after the end of the 2-h infusion on day 1 of cycles 1, 2, and 3. Samples were kept on ice and centrifuged within 1 h of collection at 2,700g/4 °C for 10 min; separated plasma was immediately frozen on dry ice and then stored at −20 °C or below.
A 2-compartment PPK model was developed with data from two phase I studies in solid tumors [31, 32]. The model fits were conducted using NONMEM V, level 1.1 (GloboMax LLC), and a first-order conditional estimation method was employed for all model runs. The model included between-subject variability on clearance and volume of distribution, and mixed error terms.

[3] = dinaciclib-related hematologic toxicity

Cmax [2]: > 4 µM | concentration at 2 h ([2]; 40 mg/m^2): 1010 ng/mL | concentration at 2.25 h ([2]; 40 mg/m^2): 1100 ng/mL | concentration at 4 h ([2]; 40 mg/m^2): 118 ng/mL | concentration at 6 h ([2]; 40 mg/m^2): 42.4 ng/mL | AUC ([2]; 50 mg/m^2): 3560 ng·h/mL | concentration at 2.25 h ([2]; 50 mg/m^2): 707 ng/mL | concentration at 2.5 h ([2]; 50 mg/m^2): 354 ng/mL | concentration at 3 h ([2]; 50 mg/m^2): 195 ng/mL | concentration at 4 h ([2]; 50 mg/m^2): 139 ng/mL | concentration at 6 h ([2]; 50 mg/m^2): 36.7 ng/mL | AUC ([2]; 70 mg/m^2): 4980 ng·h/mL | concentration at 2 h ([2]; 70 mg/m^2): 1700 ng/mL | concentration at 2.25 h ([2]; 70 mg/m^2): 724 ng/mL | concentration at 2.5 h ([2]; 70 mg/m^2): 457 ng/mL | concentration at 3 h ([2]; 70 mg/m^2): 307 ng/mL | concentration at 4 h ([2]; 70 mg/m^2): 125 ng/mL | concentration at 6 h ([2]; 70 mg/m^2): 52.2 ng/mL
SMILES: CCc1cnn2c(NCc3ccc[n+]([O-])c3)cc(N3CCCC[C@H]3CCO)nc12 [Dinaciclib]
Nausea, All (%) ([1]; Cycle 1 n = 20): 8 (40) patients (%) | Nausea, Grade ≥3 ([1]; Cycle 1 n = 20): 1 patients | Pneumonia, All (%) ([1]; Cycle 1 n = 20): 2 (10) patients (%) | Pneumonia, Grade ≥3 ([1]; Cycle 1 n = 20): 2 patients | Sinus Tachycardia, All (%) ([1]; Cycle 1 n = 20): 2 (10) patients (%) | Stomatitis, All (%) ([1]; Cycle 1 n = 20): 1 (5) patients (%) | Syncope, All (%) ([1]; Cycle 1 n = 20): 1 (5) patients (%) | Syncope, Grade ≥3 ([1]; Cycle 1 n = 20): 1 patients | Tumor lysis sy, All (%) ([1]; Cycle 1 n = 20): 3 (15) patients (%) | Tumor lysis sy, Grade ≥3 ([1]; Cycle 1 n = 20): 3 patients | Vomiting, All (%) ([1]; Cycle 1 n = 20): 9 (45) patients (%) | Dehydration, All (%) ([1]; Cycle 2 n = 10): 1 (10) patients (%) | Diarrhea, All (%) ([1]; Cycle 2 n = 10): 7 (70) patients (%) | Diarrhea, Grade ≥3 ([1]; Cycle 2 n = 10): 1 patients | Fatigue, All (%) ([1]; Cycle 2 n = 10): 2 (20) patients (%) | Fatigue, Grade ≥3 ([1]; Cycle 2 n = 10): 1 patients | Hyperbilirubinemia, All (%) ([1]; Cycle 2 n = 10): 1 (10) patients (%) | Hyperkalemia, All (%) ([1]; Cycle 2 n = 10): 1 (10) patients (%) | Hyperphosphatemia, All (%) ([1]; Cycle 2 n = 10): 1 (10) patients (%) | Hypoalbuminemia, All (%) ([1]; Cycle 2 n = 10): 1 (10) patients (%) | Hypotension, All (%) ([1]; Cycle 2 n = 10): 2 (20) patients (%) | Increased ALT, All (%) ([1]; Cycle 2 n = 10): 1 (10) patients (%) | Increased AST, All (%) ([1]; Cycle 2 n = 10): 1 (10) patients (%) | Nausea, All (%) ([1]; Cycle 2 n = 10): 3 (30) patients (%) | Pneumonia, All (%) ([1]; Cycle 2 n = 10): 1 (10) patients (%) | Stomatitis, All (%) ([1]; Cycle 2 n = 10): 1 (10) patients (%) | Stomatitis, Grade ≥3 ([1]; Cycle 2 n = 10): 1 patients | Syncope, All (%) ([1]; Cycle 2 n = 10): 1 (10) patients (%) | Syncope, Grade ≥3 ([1]; Cycle 2 n = 10): 1 patients | Vomiting, All (%) ([1]; Cycle 2 n = 10): 2 (20) patients (%) | Anorexia, All (%) ([1]; Cycle 3 n = 6): 1 (17) patients (%) | Cytokine release sy, All (%) ([1]; Cycle 3 n = 6): 1 (17) patients (%) | Cytokine release sy, Grade ≥3 ([1]; Cycle 3 n = 6): 1 patients | Diarrhea, All (%) ([1]; Cycle 3 n = 6): 2 (33) patients (%) | Fatigue, All (%) ([1]; Cycle 3 n = 6): 1 (17) patients (%) | Fatigue, Grade ≥3 ([1]; Cycle 3 n = 6): 1 patients | Hypertension, All (%) ([1]; Cycle 3 n = 6): 1 (17) patients (%) | Increased ALT, All (%) ([1]; Cycle 3 n = 6): 1 (17) patients (%) | Nausea, All (%) ([1]; Cycle 3 n = 6): 1 (17) patients (%) | Vomiting, All (%) ([1]; Cycle 3 n = 6): 2 (33) patients (%) | ≥grade 3 anemia, patients [1, 3]: 25% | ≥grade 3 febrile neutropenia, patients [1, 3]: 25% | ≥grade 3 leukopenia, patients [1, 3]: 40% | ≥grade 3 neutropenia, patients [1, 3]: 10% | ≥grade 3 thrombocytopenia, patients [1, 3]: 20% | Grade 1 and 2 diarrhea, patients ([1]; in vivo): 70%
